From patent US20240226226A1, “KAPPA-OPIOID RECEPTOR AGONIST IMPLANTS FOR TREATMENT OF PRURITUS” (Titan Pharmaceuticals, Inc., priority 2021, published 2024)

Columns and labels:
[1] = Blood plasma levels from Compound A implants in rats; type: in vivo; conditions: one implant per rat, 17.5 mg Compound A
Procedure: Ten coextruded implants were prepared having a core comprising 50% of Compound A (as a salt) and 50% ethylene vinyl acetate, and a shell comprising 3% Compound A and 97% ethylene vinyl acetate. The implants measured 26 mm length×1.5 mm diameter, weighed 48 mg, and contained 17.5 mg Compound A. After extrusion, the implants were washed, dried, packaged and sterilized by E-beam irradiation at 25 KGy.
The implants were implanted into rats (one implant per rat), and blood plasma levels were measured. After an initial peak from drug on the implant surface, the rat plasma levels were sustained within a range of about 1.4 to about 4 ng/ml for about 2,000 hours (about 83 days).

[2] = test system: mice challenged with 5′-guanidinonaltrindole (5′GNTI); assay: Mouse itch model, 5′GNTI challenge, mouse prototype EVA implants; type: in vivo; conditions: male C57BL/6 mice, 1 prototype implant (10 mg Compound A) per mouse
Procedure: Compound A implants were formulated in ethylene-vinyl acetate (EVA) matrices for testing in male C57BL/6 mice. Because of the small size of the mouse, test implant prototypes (25 mm×1.5 mm) containing a limited quantity of the drug (10 mg) were used for this mouse model study. […] After extrusion, the implant prototypes were washed, dried, packaged and sterilized by E-beam irradiation at 25 KGy.
Following the implantation of one Compound A implant in each mouse, the treated mice with drug-containing implants (N=5) and untreated control mice with placebo implants or sham surgery (N=7) were challenged with 5′-guanidinonaltrindole (5′GNTI) at Days 1, 14 and 28 post-implantation. Scratch events were monitored.

[3] = Mouse plasma concentration from EVA mouse prototype implants versus subcutaneous acute injection; type: in vivo; conditions: male C57BL/6 mice, one prototype implant per mouse, compared with acute 0.3 mg/kg subcutaneous injection
Procedure: Male C57BL/6 mice were sampled for pharmacokinetic analysis following subcutaneous acute injection with Compound A in saline (0.3 mg/kg drug was administered, using an injection volume of 10 mL/kg), or following implantation with one Compound A implant in each mouse. The implants used were as described in Example 2.

[4] = test system: mice challenged with the pruritogen 5′-GNTI; assay: Scratching events in mice after 5′-GNTI challenge over an 84-day period, Compound A-containing implants; type: in vivo, mouse; conditions: male C57BL/6 mice, one implant (26×2.6 mm, 60 mg Compound A), 5′GNTI 0.1 mg/kg s.c. on Days 28, 56 and 84, initial 30 minutes of observation
Procedure: Male C57BL/6 mice (8-14 wks old, N=7-8) were each implanted with one Compound A-containing implant (26×2.6 mm, 50% loading, 60 mg Compound A/implant). Controls were untreated mice or mice implanted with placebo (EVA-only) implants (N=5-7). On Days 28, 56 and 84 post-implantation, the mice were transferred to behavioral rooms during the light cycle, at least 2 hours prior to challenge with the pruritogen 5′-GNTI to minimize stress effects on grooming and movement. 5′GNTI (0.1 mg/kg) was subcutaneously injected just caudal to the head/neck, and the mice were immediately placed in an observation chamber (25×25 cm) with plexiglas walls and light-colored melamine flooring and video recorded from above for up to 90 minutes after pruritogen challenge, and then removed and placed back into their home cages in the housing colony. The video recordings were subsequently analyzed for the quantity of scratching behavior, classified as either a forepaw scratching bout behind the ears, or hind paw scratching bout of the flank/back of the animal, over the initial 30 minutes of observation.
(D28C=control mice at day 28, D28A=mice with Compound A implants at day 28, D56C=control mice at day 56, D56A=mice with Compound A implants at day 56, D84C=control mice at day 84, D84A=mice with Compound A implants at day 84).

CCCC[C@@H](NC(=O)[C@@H](Cc1ccccc1)NC(=O)[C@H](N)Cc1ccccc1)C(=O)N[C@H](CCCCN(C)C)C(=O)NCc1ccncc1 [Compound A]
time for which plasma levels were sustained [1]: 2000 hours and about 2,000 hours | scratching behavior at day 28 post-implantation ([2]; 5′GNTI challenge): returning to control levels | sustained itch suppression post-implantation ([2]; 5′GNTI challenge at Days 1, 14 and 28): up to 14 days | plasma concentrations of Compound A over the first 14 days post-implantation [3]: well above the levels estimated for therapeutic anti-pruritus activity | scratch events versus control mice [4]: reduced scratch events
